Series [1] is described as follows: Differential Nuclear Staining (DNS) cytotoxicity assay, panel. The series is classed as cell-based. As to conditions: human, read-out: selective cytotoxicity index (SCI). From the text:
(§1) In this study, 19 human cell lines were utilized: seven breast human cancer; MDA-MB-468, MCF-7, T47D, HCC1419, HCC70, MDA-MB-231 (triple negative) and its lung metastatic (LM) derivative MDA-MB-231 LM2; four human leukemia/lymphoma cells, HL-60, Ramos, Jurkat and CEM, three human ovarian cancer, Ovcar 8, Ovcar 5 and Ovcar 3, one lung cancer, one melanoma and one pancreatic cell line, A549, A375, Panc-1 respectively. Furthermore, for selectivity/comparative purposes, the cell lines from the non-cancerous origin, MCF-10A, HS-27 were also included. The culture media used for MDA-MB-231, MDA-MB-231 LM2, MDA-MB-468, MCF-7, A549, A375, Panc-1, and HS-27 was DMEM (Hyclone, Logan UT), whereas for T47D, HCC-1419, HCC-70, HL-60, Ramos, Jurkat, CEM, Ovcar 8 and Ovcar 5 was RPMI-1640 (Hyclone, Logan UT). Consistently, both DMEM and RPMI culture media was supplemented with 10% heat-inactivated fetal bovine serum (FBS: Hyclone), 100 U/ml penicillin and 100 μg/ml streptomycin (Thermo Fisher Scientific Inc., Rockford, IL). […] The adherent cells, growing in the logarithmic growth phase at a 60-75% confluence, were detached by utilizing a HyQtase enzyme (Thermo Fisher Scientific Inc.), counted and seeded in 96-well plates at 10,000 cells density in 100 μL of culture medium per well. […]
(§2) To analyze the potential cytotoxic activity of PND, the Differential Nuclear Staining (DNS) assay, which was validated for high-throughput screening (HTS) using live-cell bio-imaging was utilized. […] Montages of 2 by 2 images were captured directly from each individual well of the culture plates by using a multi-well plate reader IN Cell 2000 analyzer, an HTS and high-content analysis (HCA) system (GE Healthcare Life Sciences, Pittsburgh, PA). […] Each experimental data point, as well as controls, were assessed in triplicates. […]
(§3) The selective cytotoxicity index (SCI) denotes the capability of a given experimental compound to kill cancer cells more efficiently while inflicting minimal toxicity to non-cancerous origin cells. Thus, the SCI for PND was calculated as follow: SCI=CC50 of non-cancerous cells/CC50 of cancer cells.

Series [2] concerns panel of human cancer cell lines. The description is as above. The series is classed as cell-based. The following applies: Homo sapiens; 72 h, DNS assay; read-out: CC50 over all cancer cell lines tested.
Source text: as §1, §2, §3

The subject of series [3] is HL-60 cells. Put plainly: Mitochondrial membrane potential, JC-1 flow cytometry. It counts as cell-based, human. The following applies: 6 h; vs untreated and solvent treated cells. The procedure: (§4) After treatment, the cells were harvested and stained with 2 μM of the fluorophore 5,5′,6,6′-tetrachloro-1,1′,3,3′-tetraethylbenzimidazolylcarbocyanine iodide (JC-1) following manufacturer's instructions (MitoProbe; Life Technologies, Grand Island, NY, USA). Cells with healthy polarized mitochondria favour JC-1 to form aggregates, which emit a red signal. […] Similar controls as above were concurrently analysed. Data acquisition and analysis were achieved by using CXP software (Beckman Coulter). Each data point was analysed in triplicate.
In general terms: In flow cytometry, cells or beads pass a laser one at a time.

Series [4] deals with MDA-MB-231 cells. The series is described as above. It counts as cell-based, human. The following applies: 6 h; vs untreated and solvent treated cells. The procedure: as §4
The nature of series [5]: Differential Nuclear Staining (DNS) cytotoxicity assay. The series is classed as cell-based. The following applies: human; for selectivity ratio at 72 h: read-out: selective cytotoxicity index (SCI).
Source text: (§5) In this study, 19 human cell lines were utilized: seven breast human cancer; MDA-MB-468, MCF-7, T47D, HCC1419, HCC70, MDA-MB-231 (triple negative) and its lung metastatic (LM) derivative MDA-MB-231 LM2; four human leukemia/lymphoma cells, HL-60, Ramos, Jurkat and CEM, three human ovarian cancer, Ovcar 8, Ovcar 5 and Ovcar 3, one lung cancer, one melanoma and one pancreatic cell line, A549, A375, Panc-1 respectively. Furthermore, for selectivity/comparative purposes, the cell lines from the non-cancerous origin, MCF-10A, HS-27 were also included. The culture media used for MDA-MB-231, MDA-MB-231 LM2, MDA-MB-468, MCF-7, A549, A375, Panc-1, and HS-27 was DMEM (Hyclone, Logan UT), whereas for T47D, HCC-1419, HCC-70, HL-60, Ramos, Jurkat, CEM, Ovcar 8 and Ovcar 5 was RPMI-1640 (Hyclone, Logan UT). Consistently, both DMEM and RPMI culture media was supplemented with 10% heat-inactivated fetal bovine serum (FBS: Hyclone), 100 U/ml penicillin and 100 μg/ml streptomycin (Thermo Fisher Scientific Inc., Rockford, IL). The MCF-10A cells were grown in DMEM/F12 supplemented with 10% FBS, 10 μg/ml recombinant human insulin (Sigma), 0.5 μg/ml hydrocortisone (Sigma), 20 ng/ml epidermal growth factor, 2.5 mM L-glutamine, 100 U/ml penicillin, and 100 μg/ml streptomycin. Also, a slight modification of the culture media to the HL-60 and Ovcar 3 cell lines was that 20% of FBS was added to the media (ATCC, Manassas, VA, USA). In addition, Ovcar 3 cells required 10 μg/ml recombinant human insulin (Sigma). The adherent cells, growing in the logarithmic growth phase at a 60-75% confluence, were detached by utilizing a HyQtase enzyme (Thermo Fisher Scientific Inc.), counted and seeded in 96-well plates at 10,000 cells density in 100 μL of culture medium per well. Cells growing in suspension were processed similarly as described above except for the addition of HyQtase. Typically, the incubation conditions of all the cells were at 37° C. in a 5% CO2 humidified atmosphere.
(§6) To analyze the potential cytotoxic activity of PND, the Differential Nuclear Staining (DNS) assay, which was validated for high-throughput screening (HTS) using live-cell bio-imaging was utilized. For this assay, cells were seeded at 10,000 cells/well density in a 96-well plate in 100 μl of culture media, incubated overnight, and treated with a gradient of PND concentrations for 72 h. Two hours before imaging, two fluorescent nucleic acid intercalators were added to each well, Hoechst 33342 and propidium iodide (PI; Invitrogen); at a final concentration of 1 μg/ml each. Due to its high permeability, Hoechst stains all of the cells (total dead and alive), whereas PI only stains dead or dying cells. Montages of 2 by 2 images were captured directly from each individual well of the culture plates by using a multi-well plate reader IN Cell 2000 analyzer, an HTS and high-content analysis (HCA) system (GE Healthcare Life Sciences, Pittsburgh, PA). The following controls were included in every single plate: PBS as solvent/vehicle control, hydrogen peroxide as a positive control for cytotoxicity, and untreated cells to determine the background of toxicity due to cell manipulation and intrinsic factors usually associated with the culture protocol. Each experimental data point, as well as controls, were assessed in triplicates. Cytotoxic concentration 50% (CC50) values were calculated based on a linear interpolation equation. CC50 is defined as the PND concentration required to disrupt the plasma membrane integrity of 50% of the cell population, as compared with solvent-treated cells.
as §3

For series [6], the system named is HL-60 cells. Described as above. It counts as cell-based.
Source text: as §5, §6, §3

Series [7] deals with MDA-MB-231 cells. Described as above. The series is classed as cell-based.
Source text: as §5, §6, §3

Each structure is given as a SMILES string. Some results are limits rather than exact numbers.

What is called CC50 is the concentration giving 50% cytotoxicity.

On to `COC1=CC=C2Nc3cc(Cl)ccc3C(N=C3C=C(CN4CCCC4)C(=O)C(CN4CCCC4)=C3)=C2N1` [PND, 4-[(7-chloro-2-methoxy-1,5-dihydrobenzo[b][1,5]naphthyridin-10-yl)imino]-2,6-bis(pyrrolidin-1-ylmethyl)cyclohexa-2,5-dien-1-one], for which the selectivity ratio at 72 h in series [1] (leukemia/lymphoma cells) was 1.43 to 3.47; in series [1] (several breast cancer cells vs non-cancerous cells) it was greater than 2.5; in series [5] (HL-60), 3.5; in series [5] (MCF-7 cells against non-cancerous MCF-10A cells, vs MCF-10A), 4.13; in series [5] (MDA-MB-231 LM2 cells against non-cancerous MCF-10A cells, vs MCF-10A), 2.54; in series [5] (MDA-MB-231 cells against non-cancerous MCF-10A cells, CC50 of non-cancerous MCF-10A / CC50 of MDA-MB-231) it was greater than 3. The selectivity ratio at 72 h was 3.88 in series [5] (MDA-MB-468 cells against non-cancerous MCF-10A cells, vs MCF-10A); less than 1 in series [5] (T47D cells (against non-cancerous cells, line not specified)); less than 1 in series [5] (HCC-70); 3.3 in series [5] (Jurkat); 3 in series [5] (Ramos); less than 2 in series [5] (lung cancer line). The selectivity ratio at 72 h in series [5] (melanoma cell line) was 3.2; in series [5] (pancreatic cancer line), less than 2; in series [5] (two of the three ovarian cancer lines), 3.9. Moreover, the CC50 in series [2] is 1600 to 9400 nM; with HL-60 cells [6] (Homo sapiens, 72 h, DNS assay), 1900 nM; with MDA-MB-231 cells [7] (Homo sapiens, MDA-MB-231, 72 h, DNS assay), 1600 nM. The “mitochondrial depolarization (Δψm, JC-1)” value with HL-60 cells [3] and in the series with MDA-MB-231 cells [4] was “significant mitochondrial depolarization” each time. Moreover, the CC50 at 72 h in series [5] (MCF-10A non-cancerous cells) is 6600 nM. Further, the “selective cytotoxicity index (SCI)” value is greater than 3 in the series on HL-60 cells [6] and 4.13 with MDA-MB-231 cells [7] (CC50 of non-cancerous MCF-10A / CC50 of MDA-MB-231).
